Assay results as given in patent US6872805B2 (Bristol-Myers Squibb Company, priority 2000, dated 2005).
Read-outs that look alike come from different tables or passages of the source.

Tested on: HCV replicon in Huh7 cells
Assay: HCV replicon cell-based assay
Parameters: species or system HCV strain 1B
Conditions: Hepatitis C virus, HCV replicon, Huh7 cells
Method in brief: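 Genotype 1b subgenomic replicon Huh7 cells exposed to compound 4 days at 37° C in 4% FCS, 0.5% DMSO medium. EC50 from TaqMan RT-PCR of HCV RNA, normalized to total RNA by RiboGreen; CC50 from alamar Blue fluorescence after 4 h.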

## C=CC1C[C@]1(NC(=O)[C@@H]1C[C@@H](Oc2cc(-c3ccccc3)nc3cc(OC)ccc23)CN1C(=O)C(NC(=O)OC(C)(C)C)C(C)(C)C)C(=O)NS(=O)(=O)c1ccc(NC(C)=O)cc1 (some centres unmarked) [Compound 58]
Huh-7, 96 h, 4 days, activity ranges, read-out: EC50
  EC50: < 500 nM
Huh-7, read-out: EC50 value in the replicon assay
  EC50: 250 nM
